Measurements published in patent US12378328B2, “Biohybrid peptidoglycan oligomers” (Nanyang Technological University, priority 2019, dated 2025).

How the values were obtained:
[1] = tested on: E. faecalis OG1RF; assay: TIRF microscopy of wild type and L-form bacteria; type: cell-based; conditions: 30 min, 37° C.; for fluorescence localisation, L-form cells: L-form E. faecalis OG1RF
Text: L-form bacteria and fluorescence microscopy were deployed to further study the interaction between PGOs and bacterial cell walls. L-form bacteria are deficient in cell wall components (referring to substrates forming the cell wall) or cell wall fragments (referring to the residues formed after cell autolysis) on their surface. BOCILLIN™ FL (Boc-FL), a fluorescent penicillin-derivative, was used to compare the localisation of penicillin-derivatives to that of PGOs.
The localisation of PGOs-rhodamine was also compared to the membrane dye Polymyxin B-BODIPY FL (Polymyxin B). […] In comparison, the PGOs localised in discrete punctae on the L-form cell surfaces. […] Thus, it is concluded that PGOs' localisation patterns within bacterial cell walls strongly resemble penicillin-derivatives (FIG. 9, top row).
L-forms were generated using DM3 agar by modified methods from reported protocol (Molec. Gen. Genet., 1979, 168, 111-115). DM3 medium consists of 1.2 wt % agar, 0.5 wt % Tryptone, 0.5 wt % yeast extract, 1 M Succinate (pH 7.3), 3.5 wt % K2HPO4 and 1.5 wt % KH2PO4, 20 wt % Glucose, 1 M MgCl2 and 2 wt % BSA, with the balance being water. Parental strain E. faecalis OG1RF was grown overnight at 37° C. in DM3 broth. 100 μL of an overnight culture was directly plated on DM3 agar plates supplemented with 200 μg/ml penicillin G. The plates were incubated at 37° C. Small fried egg-like shaped colonies appeared after 5 days. The colonies were restreaked on DM3 agar with 200 μg/ml penicillin G for a few times to get pure colonies, and serial passaging (ten times) of pure colonies in DM3 agar with decreasing penicillin G concentrations to generate stable L-forms. The stable L-forms were stored at −80° C. in 20% glycerol.
Fluorescence microscopy was performed on Nikon TIRF microscope (Nikon instruments, NY, USA). BODIPY FL and sulforhodamine B were excited at 488 and 560 nm and emitted at 512 and 580 nm respectively. […]

[2] = tested on: S. aureus and E. faecalis; assay: STED super-resolution microscopy of cell walls that incorporated PGOs; type: cell-based
Protocol: To prepare samples for super resolution STED microscopy, overnight broth cultures were grown in 5 ml of fresh culture broth (1:100 dilution) to prepare logarithmic phase cultures after incubation at 37° C. for 4 hours in a shaking incubator (225 rpm). Then, bacteria cells were pelleted by centrifugation at 1,500×g for 5 min, suspended in culture media (MHB and BHI) at a concentration of 10^8 CFU ml^−1 and incubated for 1 h in the dark in the presence of 100 μg/ml of rhodamine-labeled derivative of 1 at 37° C. with agitation (225 rpm). […] Cells were fixed for 1 h at 37° C. in a shaking incubator (225 rpm), washed three times in PBS and applied to a sterile glass bottom collagen coated dish (MatTek Corporation).
STED super resolution microscopy was performed on a Leica TCS SP8 STED-3× microscope (Leica Microsystems, Wetzlar, Germany) at SingHealth Advanced Biomaging Core. 479 nm and 556 nm lasers were used for fluorescence excitation, while 660 nm STED laser was used for depletion. In order to achieve maximum lateral resolution, all images were acquired in 2D STED mode. Further image processing required deconvolution, which was done using Huygens Professional software (Scientific Volume Imaging, Hilversum, Netherlands).
To characterize the bacterial PG cell walls that incorporated PGOs, the microscope images obtained from Example 5 were further analysed.

Cc1cc(C)n2c1C=C1C=CC(CCC(=O)Nc3ccc(OCC(=O)N[C@@H]4C(=O)N5[C@@H]4SC(C)(C)[C@@H]5C(=O)[O-])cc3)=[N+]1[B-]2(F)F.[Na+] [Boc-FL]
fluorescence localisation, L-form cells [1]: only a few distinct fluorescent punctae
fluorescence localisation, wild type cells ([1]; wild type E. faecalis OG1RF): intense fluorescence at the septum region and also the adjacent cell surface

CCCCN(CCCC)c1ccc(/C=C/c2cc[n+](CCC[N+](C)(C)CCCN)cc2)cc1.Cl.[Cl-].[Cl-] [FM 1-43fx]
localisation of signal on the bacterial cell [2]: adsorbed directly onto the bacterial cell surface

Polymyxin B
fluorescence localisation, L-form cells [1]: Strong uniform membranous staining
